Assay results published in patent publication US10398717B2, “Pharmaceutical composition based on a hepatoprotector and prebiotic, and method for administrating” (priority 2008, dated 2019).

Key:
Sprague-Dawley rats = test: High-fat diet induced non-alcoholic hepatitis model; assay type: in vivo; details: liver histology, day 121; oral administration during 90 days
Method: The control group (Group 4, n=14 in each group) was administered an equal amount of 1% methyl cellulose suspension. The animals were monitored for 120 days on the background of continuous pathology induction. Administration of drugs began after 30 days from the beginning of diet supplementation (10 % lard and 2% cholesterol for each 100 g feed). The effect of therapy was assessed by biochemical parameters (ALT, AST, triglycerides) and liver histology. On day 121, animals were euthanized and liver histology was performed. In the control group, […] of animals developed steatosis.

[1] = test system: patients with diffuse liver diseases (cirrhosis, hepatitis) with intrhepatic cholestasis syndrome; details: human, in vivo; cited from earlier work
[2] = cited from earlier work
colon contents = details: in vivo; cited from earlier work

C[C@H](CCC(=O)O)[C@H]1CC[C@H]2[C@@H]3[C@@H](O)C[C@@H]4C[C@H](O)CC[C@]4(C)[C@H]3CC[C@]12C [Group 3, ursodeoxycholic acid]
rats in which signs of steatosis, ballooning, and inflammation improved (Sprague-Dawley rats): 50%

C[S+](CC[C@H](N)C(=O)[O-])C[C@H]1O[C@@H](n2cnc3c(N)ncnc32)[C@H](O)[C@@H]1O (stereo partly drawn) [ademethionine, S-adenosil-L-metionine]
duration of antiasthenic, anticholestatic and hepatoprotective effects after the treatment was stopped [1]: 3 months
patients with decrease of intensity of asthenic syndrome [1]: 46%
patients with disappearance of asthenic syndrome [1]: 54%

OC[C@H]1O[C@@H](O[C@@H]2[C@@H](CO)O[C@](O)(CO)[C@H]2O)[C@H](O)[C@@H](O)[C@H]1O [lactulose, 4-0-D-galactopyranosyl-D-fructose]
solubility in water [2]: very soluble in water
increase of volume of colon contents (colon contents): about 30%
